Assay [1] deals with human rhinovirus Type A Strain 16 (HRVA16) in HeLa Ohio cells. Briefly: Cytopathic Effect (CPE) Assay, ATP-depletion in infected HeLa Ohio cells. Particulars: Human rhinovirus sp., HRVA16, HeLa, 48 h, HRVA16 at MOI of 1, 33° C. for 2 days, CellTiter-Glo, read-out: mean pIC50 (converted). It is filed as cell-based. How it is done:
c) Cytopathic Effect (CPE) Assay Protocol
The in vitro inhibition of PI4 KB activity was determined by analysis of the inhibition of ATP-depletion in HeLa Ohio cells in response to infection with human rhinovirus Type A Strain 16 (HRVA16). ATP levels were determined using CellTiter-GLO reagent from Promega. Compounds that inhibit PI4 KB are also potent inhibitors of human rhinoviruses and are able to protect HeLa Ohio cells from CPE induced by viral infection and replication. Protected cells remain viable following viral infection and therefore have greater ATP levels.
Compounds were dissolved in 100% DMSO to a concentration of 3 mM and subsequent dilutions were prepared in 100% DMSO using a 1:3 serial step dilution. A 0.5 μL stamp from an 10-point titration was transferred to a white 96 well Greiner tissue culture flat bottom plate (655083). A 0.5 μL stamp of 100% DMSO was stamped into columns 11 and 12 of the plate, ensuring a final assay DMSO concentration of 0.33% across the plate and a compound top final assay concentration of 10 μM.
HeLa Ohio cells were cultured at 37° C., 5% CO2 in media (DMEM supplemented with 10% Australian origin foetal bovine serum and 2 mM glutamax). Cells were passaged when confluency reached >80%. For the assay, cells were grown to 80-90% confluency before detachment.
Cells were detached for the assay by washing with PBS and detached using 3 mL TrypLE Express for […] at 37° C. Detached cells were mixed with 7 mL of media and centrifuged at 300 g for 5 min. The cell pellet was resuspended in 50 mL media and counted on a Beckman Coulter ViCell. Cells were diluted to 6.6×10^4 cells/mL and some of the cell volume was removed into a new tube to be used as a column 12 control. HRVA16 stock was added to the remaining cell suspension at the appropriate dilution for the virus stock to achieve an MOI of 1.
150 μL of the cell+virus suspension was added per well to columns 1-11 using a Multidrop Combi. 150 μL of the separate cell suspension was added per well to columns 12 using a multichannel pipette. Assay plates were sealed and incubated at 33° C., 5% CO2 for 2 days. After 2 days, assay plates were removed from the incubator and allowed to equilibrate to room temperature. 60 μL of CellTiter-Glo reagent was added to all wells using a Thermo Scientific Multidrop Combi. Plates were incubated at room temperature for 20 min before reading on an a Perkin Elmer Envision (Settings: Gripper height 2.5, Fixed measurement height (mm) 6.5, Distance between plate and detector 0, Measurement time (s) 0.1, Glow (ct2) correction factor (0%)).
The inhibitory effect of the compounds on the PI4 KB activity was evaluated by the IC50 of the response relative to the high (no virus, column 12) and low (virus+no inhibitor, column 11) controls by fitting to a four parameter dose response equation.

Assay [2] concerns the target T1, human PI4KIII-beta 13-828 (D316-330) (Homo sapiens, UniProt Q9UBF8).
T1 construct: human PI4KIII-beta 13-828 (D316-330)
Briefly: PI4 KB Activity Assay (ADP-GLO Kinase assay). It is filed as biochemical. Particulars: 1 mM ATP, 60 μM phosphatidylinositol, 3 hours at room temperature; read-out: mean pIC50 (converted). How it is done: The in vitro inhibition of human PI4KIII-beta 13-828 (D316-330) activity was determined by using the ADP-GLO Kinase assay kit from Promega. Inhibitors were dissolved in 100% DMSO at a concentration of 1 mM. Dilutions were prepared in 100% DMSO using a 1 in 3 serial step dilution. A 60 nL stamp from an 11-point titration was transferred to a white low volume 384 well Greiner assay plate ensuring a final DMSO concentration of 1% across the plate and a top final concentration of inhibitor of 10 μM. The PI4KIII-beta assay contained 25 mM Hepes pH 7.5 (NaOH), 10 mM MgCl2, 0.5 mM EGTA, 0.1% Triton X-100, 2 mM TCEP, and 0.1 mg/ml BSA, 1 mM ATP, 60 μM phosphatidylinositol, and 1.5 nM human PI4K-beta 13-828 (D316-330) in a total volume of 6 μL. The assay was initiated with the addition of enzyme, covered, and incubated at room temperature for 3 hours. The assays were stopped with the addition of 6 μl ADP-GLO Reagent containing 0.1% CHAPS to deplete the unconsumed ATP. The plates were incubated at room temperature for 60 min and then 12 μl of the Kinase Detection Reagent containing 0.1% CHAPS was added to convert ADP to ATP and introduce luciferase and luciferin. After 40 min incubation at room temperature the luminescent signal was read on a BMG Labtech PHERAstar FS with the following settings; Gain 3600, Focal height 13.7 mm, measurement interval time 1 s, Settling time 0.2 s. The inhibitory effect of the PI4K-beta activity of the compounds was evaluated by the IC50 of the response relative to the high, no compound, and low, no enzyme, controls by fitting to the four parameter dose response question.
Background: ADP-Glo turns the ADP formed in a reaction into a luminescent signal.

T1 sequence (Q9UBF8 1-801 isoform Q9UBF8-2): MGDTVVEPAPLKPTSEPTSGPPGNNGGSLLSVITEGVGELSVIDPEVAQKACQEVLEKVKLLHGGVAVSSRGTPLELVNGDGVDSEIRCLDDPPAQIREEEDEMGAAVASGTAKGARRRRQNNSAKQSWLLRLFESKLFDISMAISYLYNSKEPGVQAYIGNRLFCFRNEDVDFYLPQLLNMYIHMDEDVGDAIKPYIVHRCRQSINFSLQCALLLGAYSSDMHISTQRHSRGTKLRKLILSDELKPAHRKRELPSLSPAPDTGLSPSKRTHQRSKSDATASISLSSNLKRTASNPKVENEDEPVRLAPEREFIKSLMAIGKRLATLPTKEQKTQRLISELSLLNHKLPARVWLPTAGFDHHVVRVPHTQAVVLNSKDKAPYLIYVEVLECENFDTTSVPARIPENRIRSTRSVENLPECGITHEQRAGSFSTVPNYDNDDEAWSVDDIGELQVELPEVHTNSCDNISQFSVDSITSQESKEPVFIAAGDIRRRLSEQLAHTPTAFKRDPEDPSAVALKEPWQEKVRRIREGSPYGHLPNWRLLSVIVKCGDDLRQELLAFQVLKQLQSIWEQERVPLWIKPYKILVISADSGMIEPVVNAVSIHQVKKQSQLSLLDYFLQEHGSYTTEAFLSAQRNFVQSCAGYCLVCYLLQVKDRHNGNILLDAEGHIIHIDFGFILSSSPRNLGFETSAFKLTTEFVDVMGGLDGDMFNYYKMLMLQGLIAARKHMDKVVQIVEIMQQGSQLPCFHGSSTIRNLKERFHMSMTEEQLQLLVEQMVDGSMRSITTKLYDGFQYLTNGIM

Take `COc1ccc(-c2c(C)nn3c(NCc4cccc(-c5nccn5C)c4)cc(C(C)(C)O)nc23)cc1C(=O)N1CC[C@H](O)C1` [Compound 8, (S)-(5-(5-(2-Hydroxypropan-2-yl)-2-methyl-7-((3-(1-methyl-1H-imidazol-2-yl)benzyl)amino)pyrazolo[1,5-a]pyrimidin-3-yl)-2-methoxyphenyl)(3-hydroxypyrrolidin-1-yl)methanone]: the IC50 in assay [1] is not above 25.1 nM.
As to `Cc1ccc(-c2c(C)nn3c(NCc4cccc(-c5nccn5C)c4)cc(C(C)O)nc23)cc1C(=O)N(C)CCCO` (stereo not shown) [Compound 13], the IC50 in assay [1] is not above 25.1 nM.
`Cc1nn2c(NCc3cccc(-c4nccn4C)c3)cc(C(C)(C)O)nc2c1-c1cccc(C(=O)N(C)CCCO)c1` [Compound 87, 3-(5-(2-Hydroxypropan-2-yl)-2-methyl-7-((3-(1-methyl-1H-imidazol-2-yl)benzyl)amino)pyrazolo[1,5-a]pyrimidin-3-yl)-N-(3-hydroxypropyl)-N-methylbenzamide]: the figures for the IC50 in assay [2] and in assay [1] were not above 3.98 nM and not above 25.1 nM, respectively.
Consider `COc1ccc(-c2c(C)nn3c(NCc4cccc(-c5nccn5C)c4)cc(C(O)C4CC4)nc23)cc1S(=O)(=O)CCO` (stereo not shown) [Compound 4], for which the IC50 in assay [2] is not above 3.98 nM; in assay [1], not above 25.1 nM.
The like results for `CCC(O)c1cc(NCc2cccc(-c3nccn3C)c2)n2nc(C)c(-c3ccc(OC)c(C(=O)N(C)C4CCOCC4)c3)c2n1` (single isomer, unassigned) [Compound 77, 5-(5-(1-Hydroxypropyl)-2-methyl-7-((3-(1-methyl-1H-imidazol-2-yl)benzyl)amino)pyrazolo[1,5-a]pyrimidin-3-yl)-2-methoxy-N-methyl-N-(tetrahydro-2H-pyran-4-yl)benzamide] were, in that order, not above 3.98 nM and not above 25.1 nM.
The like results for `COc1ccc(-c2c(C)nn3c(NCc4cccc(-c5nccn5C)c4)cc(C(C)O)nc23)cc1S(=O)(=O)CCO` (stereo not shown) [Compound 2, 2-((5-(5-(1-Hydroxyethyl)-2-methyl-7-((3-(1-methyl-1H-imidazol-2-yl)benzyl)amino)pyrazolo[1,5-a]pyrimidin-3-yl)-2-methoxyphenyl)sulfonyl)ethan-1-ol] were, in that order, not above 3.98 nM and not above 25.1 nM.
The like results for `COc1ccc(-c2c(C)nn3c(NCc4cccc(-c5nccn5C)c4)cc(C(C)(C)O)nc23)cc1C(=O)N(C)CCCO` [Compound 32, 5-(5-(2-hydroxypropan-2-yl)-2-methyl-7-((3-(1-methyl-1H-imidazol-2-yl)benzyl)amino)pyrazolo[1,5-a]pyrimidin-3-yl)-N-(3-hydroxypropyl)-2-methoxy-N-methylbenzamide] were, in that order, not above 3.98 nM and not above 25.1 nM.
As for `CCN(CCO)C(=O)c1cc(-c2c(C)nn3c(NCc4cccc(-c5nccn5C)c4)cc(C(C)(C)O)nc23)ccc1C` [Compound 38, N-ethyl-N-(2-hydroxyethyl)-5-(5-(2-hydroxypropan-2-yl)-2-methyl-7-((3-(1-methyl-1H-imidazol-2-yl)benzyl)amino)pyrazolo[1,5-a]pyrimidin-3-yl)-2-methylbenzamide], the results for the IC50 in assay [2] and in assay [1] were not above 3.98 nM and not above 25.1 nM, respectively.
The corresponding values for `Cc1ccc(-c2c(C)nn3c(NCc4cccc(-c5nccn5C)c4)cc(C(C)(C)O)nc23)cc1C(=O)NCCCO` [Compound 60] are not above 3.98 nM and not above 25.1 nM.
As for `COc1ccc(-c2c(C)nn3c(NCc4cccc(-c5nccn5C)c4)cc(C(C)(C)O)nc23)cc1C(=O)N1CCC(C)(O)C1` (stereo not shown) [Compound 27], the figures for the IC50 in assay [2] and in assay [1] were not above 3.98 nM and not above 25.1 nM, respectively.
Take `COc1ccc(-c2c(C)nn3c(NCc4cccc(-c5nccn5C)c4)cc(CC4CCOCC4)nc23)cc1S(=O)(=O)CCO` [Compound 85, 2-((2-Methoxy-5-(2-methyl-7-((3-(1-methyl-1H-imidazol-2-yl)benzyl)amino)-5-((tetrahydro-2H-pyran-4-yl)methyl)pyrazolo[1,5-a]pyrimidin-3-yl)phenyl)sulfonyl)ethan-1-ol]: the IC50 in assay [2] is not above 3.98 nM; in assay [1], not above 25.1 nM.
The corresponding values for `COc1ccc(-c2c(C)nn3c(NCc4cccc(-c5nccn5C)c4)cc(C(C)(C)O)nc23)cc1C(=O)N(C)CCO` [Compound 26] are not above 3.98 nM and not above 25.1 nM.
In the case of `Cc1ccc(-c2c(C)nn3c(NCc4cccc(-c5nccn5C)c4)cc(C(C)CO)nc23)cc1C(=O)N(C)CCCO` (stereo not shown) [Compound 54, 5-(5-(1-Hydroxypropan-2-yl)-2-methyl-7-((3-(1-methyl-1H-imidazol-2-yl)benzyl)amino)pyrazolo[1,5-a]pyrimidin-3-yl)-N-(3-hydroxypropyl)-N,2-dimethylbenzamide], the IC50 is not above 3.98 nM in assay [2] and not above 25.1 nM in assay [1].
For the molecule `Cc1ccc(-c2c(C)nn3c(NCc4cccc(-c5nccn5C)c4)cc(C4(O)CC4)nc23)cc1C(=O)N(C)CCCO` [Compound 79, 5-(5-(1-Hydroxycyclopropyl)-2-methyl-7-((3-(1-methyl-1H-imidazol-2-yl)benzyl)amino)pyrazolo[1,5-a]pyrimidin-3-yl)-N-(3-hydroxypropyl)-N,2-dimethylbenzamide], the IC50 in assay [2] is not above 3.98 nM; in assay [1], not above 25.1 nM.
As to `COc1ccc(-c2c(C)nn3c(NCc4cccc(-c5nccn5C)c4)cc(C(C)(C)O)nc23)cc1C(=O)N1CCCOCC1` [Compound 28], the results for the IC50 in assay [2] and in assay [1] were not above 3.98 nM and not above 25.1 nM, respectively.
`COc1ccc(-c2c(C)nn3c(NCc4cccc(-c5nccn5C)c4)cc(C(C)O)nc23)cc1S(=O)(=O)CCO` (single isomer, unassigned) [Compound 71, 2-((5-(5-(1-Hydroxyethyl)-2-methyl-7-((3-(1-methyl-1H-imidazol-2-yl)benzyl)amino)pyrazolo[1,5-a]pyrimidin-3-yl)-2-methoxyphenyl)sulfonyl)ethan-1-ol]: the IC50 in assay [2] was not above 3.98 nM; in assay [1], not above 25.1 nM.
On to `COc1ccc(-c2c(C)nn3c(NCc4cccc(-c5nccn5C)c4)cc(C(C)(C)O)nc23)cc1C(=O)N1CCOC[C@@H]1C` [Compound 30], for which, in assay [1], the IC50 is not above 25.1 nM.
